In ChEMBL document CHEMBL1153174, “Structure-activity relationships of N-substituted ligands for the alpha7 nicotinic acetylcholine receptor” (Bioorg Med Chem Lett, 2010):
Active and inactive are the calls of the source. No cut-off for these calls is given here.

Assays:
[1] = molecular target: Neuronal acetylcholine receptor subunit alpha-7 (Rattus norvegicus, UniProt Q05941); assay: Displacement of [3H]585539 from alpha7 nAChR in rat brain; assay type: tissue-based
[2] = molecular target: Neuronal acetylcholine receptor; alpha4/beta2 (Rattus norvegicus) (UniProt P09483+P12390); assay: Displacement of [3H]cytisine from rat brain alpha4beta2 nAChR up to 10 uM
[3] = molecular target: Neuronal acetylcholine receptor; alpha4/beta2 (Homo sapiens, UniProt P17787+P43681); assay: Inhibition of alpha4beta2 nAChR; assay type: protein-complex assay
Chain of Neuronal acetylcholine receptor; alpha4/beta2 (P17787 whole entry): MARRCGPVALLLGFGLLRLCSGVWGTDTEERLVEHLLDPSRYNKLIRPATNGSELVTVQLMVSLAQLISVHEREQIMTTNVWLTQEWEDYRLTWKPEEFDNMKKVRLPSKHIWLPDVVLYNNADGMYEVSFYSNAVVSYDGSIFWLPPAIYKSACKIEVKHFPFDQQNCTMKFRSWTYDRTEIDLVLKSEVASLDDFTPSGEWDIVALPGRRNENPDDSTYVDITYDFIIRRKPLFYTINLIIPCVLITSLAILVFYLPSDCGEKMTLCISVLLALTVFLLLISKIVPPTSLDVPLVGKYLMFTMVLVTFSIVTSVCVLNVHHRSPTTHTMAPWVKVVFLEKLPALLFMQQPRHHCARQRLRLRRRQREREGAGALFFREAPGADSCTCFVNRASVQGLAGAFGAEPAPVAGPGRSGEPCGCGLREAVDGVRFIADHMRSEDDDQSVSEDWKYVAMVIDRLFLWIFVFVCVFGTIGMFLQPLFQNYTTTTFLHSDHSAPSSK
Chain of Neuronal acetylcholine receptor; alpha4/beta2 (P43681 whole entry): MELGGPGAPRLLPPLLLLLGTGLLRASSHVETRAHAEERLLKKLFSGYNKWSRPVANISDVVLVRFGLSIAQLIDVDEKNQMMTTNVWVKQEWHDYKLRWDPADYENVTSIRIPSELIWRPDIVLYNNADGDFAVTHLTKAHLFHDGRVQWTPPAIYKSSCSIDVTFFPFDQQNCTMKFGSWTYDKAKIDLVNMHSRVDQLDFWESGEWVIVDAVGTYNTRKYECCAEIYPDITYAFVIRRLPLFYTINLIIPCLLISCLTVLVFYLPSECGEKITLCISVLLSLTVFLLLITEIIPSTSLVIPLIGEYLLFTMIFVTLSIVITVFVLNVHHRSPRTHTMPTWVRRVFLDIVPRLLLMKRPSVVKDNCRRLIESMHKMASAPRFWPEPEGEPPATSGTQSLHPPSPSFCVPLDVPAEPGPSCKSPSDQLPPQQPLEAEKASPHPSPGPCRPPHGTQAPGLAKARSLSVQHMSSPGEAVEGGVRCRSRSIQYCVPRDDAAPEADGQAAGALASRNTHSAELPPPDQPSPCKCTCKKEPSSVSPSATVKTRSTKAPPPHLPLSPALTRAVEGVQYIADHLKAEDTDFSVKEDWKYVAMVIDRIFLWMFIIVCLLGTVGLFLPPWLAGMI

[4] = molecular target: Neuronal acetylcholine receptor; alpha3/beta4 (Homo sapiens, UniProt P30926+P32297); assay: Inhibition of alpha3beta4 nAChR
Chain of Neuronal acetylcholine receptor; alpha3/beta4 (P30926 whole entry): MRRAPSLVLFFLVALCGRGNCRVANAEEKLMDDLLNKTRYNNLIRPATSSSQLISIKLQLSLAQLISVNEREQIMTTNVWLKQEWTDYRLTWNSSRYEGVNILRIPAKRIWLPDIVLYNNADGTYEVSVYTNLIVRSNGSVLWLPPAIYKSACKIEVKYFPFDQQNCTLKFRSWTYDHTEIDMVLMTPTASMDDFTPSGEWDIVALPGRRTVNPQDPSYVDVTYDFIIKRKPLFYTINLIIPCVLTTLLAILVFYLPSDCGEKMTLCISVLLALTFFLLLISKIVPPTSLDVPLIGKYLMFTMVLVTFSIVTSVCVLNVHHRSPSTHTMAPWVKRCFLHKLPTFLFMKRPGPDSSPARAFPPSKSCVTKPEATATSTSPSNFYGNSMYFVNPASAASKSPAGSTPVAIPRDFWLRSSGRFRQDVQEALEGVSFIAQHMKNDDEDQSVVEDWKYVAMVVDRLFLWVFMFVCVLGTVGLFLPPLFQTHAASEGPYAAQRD
Chain of Neuronal acetylcholine receptor; alpha3/beta4 (P32297 whole entry): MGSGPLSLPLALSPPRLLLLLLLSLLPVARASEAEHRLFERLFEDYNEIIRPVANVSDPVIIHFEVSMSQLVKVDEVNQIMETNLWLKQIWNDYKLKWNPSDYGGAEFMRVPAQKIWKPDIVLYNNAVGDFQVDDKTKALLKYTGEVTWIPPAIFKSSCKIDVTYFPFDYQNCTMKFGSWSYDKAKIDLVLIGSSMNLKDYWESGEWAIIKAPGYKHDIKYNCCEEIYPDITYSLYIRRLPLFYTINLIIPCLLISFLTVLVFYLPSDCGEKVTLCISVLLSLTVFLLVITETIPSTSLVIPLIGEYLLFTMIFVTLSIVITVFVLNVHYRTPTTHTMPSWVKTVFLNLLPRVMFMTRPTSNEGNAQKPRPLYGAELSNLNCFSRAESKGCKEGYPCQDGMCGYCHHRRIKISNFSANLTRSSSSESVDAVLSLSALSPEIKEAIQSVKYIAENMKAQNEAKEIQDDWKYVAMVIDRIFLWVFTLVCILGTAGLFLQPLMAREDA

[5] = molecular target: T1, Neuronal acetylcholine receptor subunit alpha-7 (Homo sapiens, UniProt P36544); assay: Agonist activity at human recombinant alpha7 nAChR expressed in xenopus oocytes assessed as induction of Ca2+ current; assay type: functional, cell-based, Oocyte
T1 sequence (P36544 whole entry): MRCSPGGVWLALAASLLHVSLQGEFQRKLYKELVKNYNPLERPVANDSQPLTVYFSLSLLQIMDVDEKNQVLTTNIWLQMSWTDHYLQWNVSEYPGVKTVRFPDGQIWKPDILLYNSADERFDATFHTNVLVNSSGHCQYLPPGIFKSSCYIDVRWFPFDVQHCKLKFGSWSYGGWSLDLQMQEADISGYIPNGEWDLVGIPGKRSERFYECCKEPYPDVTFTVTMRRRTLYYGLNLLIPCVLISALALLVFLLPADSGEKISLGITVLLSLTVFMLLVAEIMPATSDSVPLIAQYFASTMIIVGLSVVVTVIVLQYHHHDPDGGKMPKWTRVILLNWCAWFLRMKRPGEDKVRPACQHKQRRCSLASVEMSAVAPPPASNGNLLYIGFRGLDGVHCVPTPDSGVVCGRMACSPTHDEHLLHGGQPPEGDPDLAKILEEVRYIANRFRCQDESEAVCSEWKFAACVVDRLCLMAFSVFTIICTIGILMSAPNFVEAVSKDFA

[6] = molecular target: T1, Neuronal acetylcholine receptor subunit alpha-7; assay: Agonist activity at human recombinant alpha7 nAChR expressed in xenopus oocytes assessed as induction of Ca2+ current relative to acetylcholine; assay type: functional, cell-based; settings: Oocyte

Chain of Neuronal acetylcholine receptor subunit alpha-7 (Rattus norvegicus, UniProt Q05941) (Q05941 whole entry): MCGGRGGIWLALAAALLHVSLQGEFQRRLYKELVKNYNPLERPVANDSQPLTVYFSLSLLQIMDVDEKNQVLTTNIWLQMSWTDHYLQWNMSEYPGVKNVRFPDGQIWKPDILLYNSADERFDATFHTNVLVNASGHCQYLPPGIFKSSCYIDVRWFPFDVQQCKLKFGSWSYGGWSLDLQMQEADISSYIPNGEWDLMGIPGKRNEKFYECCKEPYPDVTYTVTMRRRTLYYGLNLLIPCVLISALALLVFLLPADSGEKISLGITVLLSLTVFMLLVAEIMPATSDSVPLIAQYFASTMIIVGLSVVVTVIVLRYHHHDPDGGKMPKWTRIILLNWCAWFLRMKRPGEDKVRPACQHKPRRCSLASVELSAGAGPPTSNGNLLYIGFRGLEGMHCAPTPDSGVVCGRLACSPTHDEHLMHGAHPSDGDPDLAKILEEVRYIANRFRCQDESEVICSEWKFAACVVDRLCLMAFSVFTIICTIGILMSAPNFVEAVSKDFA

CN(Cc1ccccn1)C1CCN(c2ccc(-c3ccccc3)nn2)C1 (racemic)
Ki [1]: > 10000 nM | Activity [2]: inactive

CN1C[C@@H]2CN(c3ccc(-c4ccccc4)nn3)C[C@@H]2C1
Ki [3]: > 100000 nM | Ki [4]: 4700 nM

CCN(C)C1CCN(c2ccc(-c3ccccc3)nn2)C1 (racemic)
Ki [1]: 746 nM | Activity [2]: inactive

CNC1CCN(c2ccc(-c3ccccc3)nn2)C1 (stereo not drawn)
Ki [1]: > 10 nM

CN1C[C@@H]2CN(c3ccc(-c4ccccc4)nn3)C[C@@H]2[C@H]1COc1cccnc1
Ki [1]: 42 nM | EC50 [5]: 12900 nM | Activity [6]: 44%

CN(Cc1ccc(Cl)nc1)C1CCN(c2ccc(-c3ccccc3)nn2)C1 (racemic)
Ki [1]: > 10 nM | Activity [2]: inactive

c1ccc(CN2C[C@@H]3CN(c4ccc(-c5ccccc5)nn4)C[C@@H]3C2)cc1
Ki [1]: 476 nM | Activity [2]: inactive

CN(Cc1cccnc1)C1CCN(c2ccc(-c3ccccc3)nn2)C1 (racemic)
Ki [1]: > 10000 nM | Activity [2]: inactive

Clc1ccc(CN2C[C@@H]3CN(c4ccc(-c5ccccc5)nn4)C[C@@H]3C2)cn1
Ki [1]: 102 nM | Activity [2]: inactive | EC50 [5]: 11800 nM | Activity [6]: 13%

CN(C)C1CCN(c2ccc(-c3ccccc3)nn2)C1 (racemic)
Ki [1]: 478 nM | Activity [2]: inactive

CN(Cc1ccccc1)C1CCN(c2ccc(-c3ccccc3)nn2)C1 (racemic)
Ki [1]: > 10000 nM | Activity [2]: inactive

c1ccc(-c2ccc(N3C[C@H]4CN(Cc5ccncc5)C[C@H]4C3)nn2)cc1
Ki [1]: 541 nM | Activity [2]: inactive

c1ccc(-c2ccc(N3C[C@H]4CN(Cc5ccccn5)C[C@H]4C3)nn2)cc1
Ki [1]: 533 nM | Activity [2]: inactive

c1ccc(-c2ccc(N3C[C@H]4CN(Cc5cccnc5)C[C@H]4C3)nn2)cc1
Ki [1]: 3.6 nM | Activity [2]: inactive | EC50 [5]: 9360 nM | Activity [6]: 84%

CN1C[C@@H]2CN(c3ccc(-c4ccccc4)nn3)C[C@@H]2[C@@H]1COc1cccnc1
Ki [1]: 320 nM | EC50 [5]: > 100000 nM

Clc1ccc(C2CC3CCC2N3)cn1 (stereo not drawn)
INH [3]: 0.1 nM

CCN1C[C@@H]2CN(c3ccc(-c4ccccc4)nn3)C[C@@H]2C1
Activity [2]: inactive

CN(Cc1ccncc1)C1CCN(c2ccc(-c3ccccc3)nn2)C1 (racemic)
Ki [1]: > 10 nM | Activity [2]: inactive
